In patent US20220288060A1, “Treatment of Opioid Withdrawal” (Kinoxis Therapeutics Pty Ltd, priority 2019, published 2022):
“And” between values parts separate entries of the source, which are not always exact repeats. Identical values can stand only once. “Also recorded” adds a separate entry of the source.

What was measured:
[1] = tested on: naloxone precipitated oxycodone withdrawal in C57BL/6 mice; assay: Naloxone precipitated oxycodone withdrawal-induced jumping, two salt forms (Example 4, Experiment 2.1); format: in vivo, mouse; conditions: 7.3 mg/kg FBE i.p.; for Oxycodone withdrawal-induced jumping vs OXY_VEH: CMPD1-PO4 p<0.01, CMPD1-2HCL p<0.001; for Withdrawal-induced jumping, comparison of the two salt forms: OXY_CMPD1-PO4 vs OXY_2 HCL p=0.901
C57BL/6 mice [2] = assay: Open field locomotor activity test (Experiment 1.1); format: in vivo, mouse; conditions: 5 mg/kg i.p.; time post dose 75-80; individual mice 7-12
C57BL/6 mice [3] = assay: as above; format: in vivo, mouse
Experimental: N=18 adult male C57BL/6 mice received either 0, 5 or 10 mg/kg CMPD1-2HCL (i.p.; n=6 per condition). Fifteen minutes after receiving their i.p. injection of CMPD1-2HCL mice were placed individually into a novel 40 (l)×40 (w)×40 (h) cm locomotor testing arena. Sessions were captured by overhead cameras and videos were analysed by using the automated behaviour tracking software CleverSys Topscan (CleverSys, Virginia, USA), which provided the distance travelled by each mouse in each 5 min time bin over the 60 minute locomotor testing session. Data were analysed by SPSS using mixed model ANOVA.

[4] = tested on: c-fos protein expression in the brain; assay: Naloxone-precipitated opioid withdrawal-induced c-fos protein expression in the brain (Example 2); format: in vivo, mouse; conditions: 10 mg/kg i.p.; 8 brain regions; 75 minutes after naloxone
Experimental: In this example, the ability of Compound 1 to inhibit naloxone-precipitated opioid withdrawal-induced c-fos protein expression in the brain was studied. C-fos is a protein marker of neural activation. Compound 1 was administered in dihydrochloride salt form (CMPD1-2HCL).
N=40 male C57BL/6 mice were assigned to one of the following four conditions:
Mice in the oxycodone (OXY) conditions received i.p. injections of oxycodone for 9 days with increasing doses of 9, 17.8, 23.7 and 33 mg/kg (twice daily on days 1-8, with dose increasing every other day). The morning and afternoon doses were separated by 7 h. Mice in the vehicle condition (VEH) received injections of vehicle saline instead of oxycodone. One-hour-and-forty-five minutes after the morning injection on day 9, mice were administered their i.p. dose of CMPD1-2HCL (10 mg/kg at an injection volume of […]) or VEH. Fifteen minutes later they received an i.p. injection of 10 mg/kg naloxone (OXY groups) or saline (VEH groups) to precipitate withdrawal.
75 minutes after their naloxone or saline injection, mice were euthanised by sodium pentobarbitone overdose, and intracardiac puncture perfusion fixation was performed with 4% paraformaldehyde, and brains were then collected for immunohistochemical processing.
Data were analysed by SPSS using two-way ANOVA and planned contrasts.

[5] = tested on: naloxone precipitated oxycodone withdrawal in C57BL/6 mice; assay: Gastrointestinal symptoms of opioid withdrawal: fecal boli and diarrhea (Example 3); format: in vivo, mouse; conditions: 10 mg/kg i.p.
Experimental: In this example, the ability of CMPD1-2HCL to inhibit the gastrointestinal symptoms of opioid withdrawal was assessed using a murine model.
Adult male C57BL/6 mice ([…]) were allocated to one of four conditions (n=10 per condition):
(§1) Mice in the oxycodone conditions (OXY) received i.p. injections of oxycodone for 5 days according to the schedule and doses set out in Table 7. The morning and afternoon doses were separated by 7 h. Mice in the vehicle condition received injections of vehicle saline instead of oxycodone. One-hour-and-forty-five minutes after the morning injection on day 5, mice were administered their i.p. dose of CMPD1-2HCL (10 mg/kg). Fifteen minutes later they received an i.p. injection of 10 mg/kg naloxone (oxycodone groups) or saline (vehicle group), and proceeded immediately to testing.
Testing involved placing mice individually into a 20 (l)×20 (w)×30 (h) cm arena for 30 min. The number of fecal boli were counted at the end of the session and whether or not the mouse had diarrhea.
Data were analysed using ANOVA and planned contrasts for fecal boli and Fisher's exact test for diarrhea.

[6] = tested on: naloxone precipitated oxycodone withdrawal in C57BL/6 mice; assay: Naloxone precipitated oxycodone withdrawal: jumping and paw tremors (Experiment 1.2); format: in vivo, mouse; conditions: for Number of jumps for each mouse in the 30 min test session / Total duration of paw tremors for each mouse in the 30 minute test session: oxycodone condition mice, individual mice
Experimental: Adult male C57BL/6 mice (N=40) were allocated to one of five conditions (n=8 per condition):
as §1, with “conditions” for “conditions (OXY)”, “1.” for “7.”, “CMPD1-2HCL.” for “CMPD1-2HCL (10 mg/kg).”
Testing involved placing mice individually into a 20 (l)×20 (w)×30 (h) cm arena for 30 min. Sessions were captured via a side view high speed (120 fps), high resolution (4K) camera. Number of jumps and total duration of paw tremors were scored from the videos by an experienced experimenter blind to conditions.
Data were analysed by SPSS using oneway ANOVA and planned contrasts.

[7] = clinical trials; cited from earlier work

## Cn1ncc2c1Nc1ccccc1NC2.O=P(O)(O)O [CMPD1-PO4]
[1]
  Oxycodone withdrawal-induced jumping vs OXY_VEH: significantly inhibited
  Withdrawal-induced jumping, comparison of the two salt forms: did not differ significantly

## Cl.Cl.Cn1ncc2c1Nc1ccccc1NC2 [CMPD1-2HCL]
C57BL/6 mice [2]
  Distance travelled during time bin: 3441.42 mm and 8422.46 mm and 11136.92 mm and 9156.71 mm and 2402.89 mm and 1364.63 mm
C57BL/6 mice [3]; 5 mg/kg i.p., time post dose 15-20 (5 min bin), individual mice 7-12
  Distance travelled during time bin: 15043.46 mm and 20271.67 mm and 23636.81 mm and 18238.34 mm and 16051.42 mm and 16442.58 mm
C57BL/6 mice [3]; 5 mg/kg i.p., time post dose 20-25, individual mice 7-12
  Distance travelled during time bin: 20386.17 mm and 13996.02 mm and 16449.1 mm and 11919.46 mm and 11756.3 mm and 10974.55 mm
C57BL/6 mice [3]; 5 mg/kg i.p., time post dose 25-30, individual mice 7-12
  Distance travelled during time bin: 11089.15 mm and 11425.88 mm and 11764.23 mm and 8462.92 mm and 10127.95 mm and 8553.13 mm
C57BL/6 mice [3]; 5 mg/kg i.p., time post dose 30-35, individual mice 7-12
  Distance travelled during time bin: 13221.16 mm and 7779.42 mm and 11134.18 mm and 8664.63 mm and 9823.55 mm and 4905.54 mm
C57BL/6 mice [3]; 5 mg/kg i.p., time post dose 35-40, individual mice 7-12
  Distance travelled during time bin: 15282.34 mm and 6791.58 mm and 8208.55 mm and 11776.57 mm and 10597.55 mm and 5280.25 mm
C57BL/6 mice [3]; 5 mg/kg i.p., time post dose 40-45, individual mice 7-12
  Distance travelled during time bin: 7068.09 mm and 9050.59 mm and 7493.64 mm and 9121.74 mm and 5308.25 mm and 6050.2 mm
C57BL/6 mice [3]; 5 mg/kg i.p., time post dose 45-50, individual mice 7-12
  Distance travelled during time bin: 5367.28 mm and 6712.87 mm and 5587.1 mm and 5518.04 mm and 9993.79 mm and 5466.54 mm
C57BL/6 mice [3]; 5 mg/kg i.p., time post dose 50-55, individual mice 7-12
  Distance travelled during time bin: 945.3 mm and 7073.77 mm and 10568.53 mm and 9463.89 mm and 5234.55 mm and 6665.74 mm
C57BL/6 mice [3]; 5 mg/kg i.p., time post dose 55-60, individual mice 7-12
  Distance travelled during time bin: 3362.81 mm and 8088.81 mm and 11051.63 mm and 11843.34 mm and 6386.55 mm and 4645.85 mm
C57BL/6 mice [3]; 5 mg/kg i.p., time post dose 60-65, individual mice 7-12
  Distance travelled during time bin: 6133.83 mm and 10365.45 mm and 10059.86 mm and 11154.54 mm and 8969.03 mm and 4893.44 mm
C57BL/6 mice [3]; 5 mg/kg i.p., time post dose 65-70, individual mice 7-12
  Distance travelled during time bin: 5268.88 mm and 4809.55 mm and 6121.25 mm and 4100.88 mm and 9397.98 mm and 4757.22 mm
C57BL/6 mice [3]; 5 and 10 mg/kg i.p., main effect of dose p=0.392, time by dose interaction p=0.143
  Effect on locomotor activity (distance travelled): does not significantly impact locomotor activity; also recorded: does not supress locomotor activity
C57BL/6 mice [3]; Table 3, 5 mg/kg, i.p., time post dose 35-40, individual mice 13-18
  Distance travelled during time bin: 11756.13 mm and 8046.38 mm (2×) and 12860.87 mm and 13271.28 mm and 10054.85 mm
C57BL/6 mice [3]; Table 3, 5 mg/kg, i.p., time post dose 40-45, individual mice 13-18
  Distance travelled during time bin: 7682.41 mm and 2222.65 mm (2×) and 11152.11 mm and 12391.75 mm and 4683.51 mm
C57BL/6 mice [3]; Table 3, 5 mg/kg, i.p., time post dose 45-50, individual mice 13-18
  Distance travelled during time bin: 11290.93 mm and 6482.48 mm (2×) and 10743.61 mm and 12658.5 mm and 8082.58 mm
C57BL/6 mice [3]; Table 3, 5 mg/kg, i.p., time post dose 55-60, individual mice 13-18
  Distance travelled during time bin: 28970.94 mm and 12316.3 mm (2×) and 32680.43 mm and 27725.23 mm and 19894.04 mm
C57BL/6 mice [3]; Table 3, 5 mg/kg, i.p., time post dose 60-65, individual mice 13-18
  Distance travelled during time bin: 17509.3 mm and 10864.14 mm (2×) and 28788.31 mm
[4]
  Withdrawal induced neural activation (c-fos positive cells): significantly inhibited withdrawal induced neural activation
[5]; Fisher's exact test
  Number of mice suffering from diarrhea: inhibited
[5]; p<0.001 vs opioid withdrawal
  Amount of fecal boli produced during the 30 min session: significantly inhibited
[5]; OXY condition, n=10, OXY, VEH 90%, VEH, VEH 0%
  Proportion of mice suffering from diarrhea: 30%
[1]
  Oxycodone withdrawal-induced jumping vs OXY_VEH: significantly inhibited
  Withdrawal-induced jumping, comparison of the two salt forms: did not differ significantly
[6]; 2.5, 5, 10 mg/kg i.p., p<0.001, p<0.001, p=0.011
  Jumping relative to mice not undergoing oxycodone withdrawal (VEH 0CMPD1): still showed elevated jumping
[6]; 2.5, 5, 10 mg/kg i.p., p=0.023, p=0.018, p<0.001
  Oxycodone withdrawal-induced jumping vs OXCD 0CMPD1: significantly inhibited
[6]; 2.5-10 mg/kg i.p., conclusion
  Dysphoric and somatic symptoms (jumping and paw tremors) of oxycodone withdrawal: dose dependently inhibited
[6]; 5 and 10 mg/kg i.p., p=0.204, p=0.4 (2.5 mg/kg p<0.01)
  Paw tremors relative to mice not undergoing oxycodone withdrawal (VEH 0CMPD1): no longer had significantly elevated paw tremors
[6]; highest dose 10 mg/kg i.p., p=0.033 (2.5 mg/kg p=0.898; 5 mg/kg p=0.083)
  Oxycodone withdrawal-induced paw tremors vs OXCD 0CMPD1: significantly inhibited
[6]; 2.5 mg/kg i.p., 2.5 mg/kg
  Number of jumps for each mouse in the 30 min test session: 86 and 52 and 58 and 50 (2×) and 31 and 92 and 68
  Total duration of paw tremors for each mouse in the 30 minute test session: 12.4 s and 2.3 s and 78.4 s and 48 s and 27.1 s and 20.4 s and 0.2 s and 0.4 s
[6]; 5 mg/kg i.p., 5 mg/kg
  Number of jumps for each mouse in the 30 min test session: 51 and 35 and 61 and 48 (2×) and 30 and 136 and 67
  Total duration of paw tremors for each mouse in the 30 minute test session: 8.2 seconds and 21.4 seconds and 3 seconds (2×) and 18.5 seconds and 2.1 seconds and 3.2 seconds and 17 seconds
[6]; 10 mg/kg i.p., 10 mg/kg
  Number of jumps for each mouse in the 30 min test session: 25 and 120 and 17 and 33 (2×) and 26 and 51 and 34
  Total duration of paw tremors for each mouse in the 30 minute test session: 9.9 seconds and 0 seconds (3×) and 6 seconds and 21.5 seconds and 3.3 seconds and 9.6 seconds

## CC(Oc1c(Cl)cccc1Cl)C1=NCCN1 (stereo not drawn) [lofexidine]
[7]
  Improvements in acute opioid withdrawal symptoms and treatment retention: only modest improvements
  Side effects: hypotension, bradycardia and insomnia
